Patent publication US20140135281A1, “METHODS FOR C[…] MITES” (SYNGENTA PARTICIPATIONS AG, priority 2011, published 2014)

Test system: Varroa destructor
Test: Contact test of Varroa mite adults on Potter-tower-treated Petri dishes, mortality
Assay type: in vivo
Details: concentration of formulation (WP75) 67 microgramme; in 2 days; adult mites, 4 dishes of 5, spray deposit contact
Excerpt: Varroa mites came from bee colonies provided by a beekeeper. The mite population is kept in a dedicated apiary. For screening needs adults are collected on the same day as the beginning of experiment, either in beehive cells containing brood of worker bees or drones, or directly on bees emerging during collection.
Bee nymphs needed to feed adults of Varroa mites during experiments are choosen within the frames from which Varroa is also collected. They are collected at the stage of nymph with white or pink coloured eyes according methology described by Rembold et Kremer (Characterization of postembryonic developmental stages of the female castes of the honey bee, Apis mellifera L.. Apidologie 11: 29-38).
3 cm diameter Petri dishes were used as confinement material of Varroa mites during experiments. Covers with wire mesh were put on the top of each Petri dish in order to avoid the mites to run away but also to keep favorable humidity for the bee nymph.
Applications were done with a Potter tower (described in “An improved apparatus for applying direct sprays and surface films with data on the electrostatic charge on atomize spray fluids.” Annal of Applied Biology, 39 : 1-28.). The active substance was apllied to achieve uniform distribution on the Petri dish (1.5 mg±0.2 mg/cm^2). A check with distilled water was also tested. […]

## Nc1nc(N)nc(NC2CC2)n1 [cyromazine]
  % mortality of Varroa: 80% in 2 days
